From patent US11008290B2, “Halogenated quinoline derivatives as antimicrobial agents” (University of Florida Research Foundation, Incorporated, priority 2015, dated 2021)
Values after ≈ are worked out from the molar mass of the structure shown. Values joined by “and” are separate entries in the source; they are usually repeats but may differ in a detail not shown here. Equal entries are not always repeated. Where two headings read alike, the source gives them in different places. Marks after values point to notes of the source that are not given here. Blank lines part the entries; values can stand above or below the compound they belong to.

How the values were obtained:
[1] = system: VRE (ATCC 700221) planktonic cells and biofilms; experiment: Calgary Biofilm Device (CBD) MBC/MBEC determination; type: cell-based, Enterococcus faecium; conditions: CBD; for MBC: planktonic killing, first value of cell
Procedure: (§1) Biofilm eradication experiments were performed using the Calgary Biofilm Device to determine MBC/MBEC values for various compounds of interest (Innovotech, product code: 19111). The Calgary device (96-well plate with lid containing 96 total pegs to establish biofilms; 1 peg/well) was inoculated with 125 μL of a mid-log phase culture diluted 1,000-fold in tryptic soy broth with 0.5% glucose (TSBG) to establish bacterial biofilms after incubation at 37° C. for 24 hours. The lid of the Calgary device was then removed, washed and transferred to another 96-well plate containing 2-fold serial dilutions of the test compounds (the “challenge plate”). The total volume of media with compound in each well in the challenge plate was 150 μL. The Calgary device was then incubated at 37° C. for 24 hours. The lid was then removed from the challenge plate and MBC/MBEC values were determined using different final assays. […] The MBC values were determined as the concentration giving a lack of visible bacterial growth (e.g., turbidity). For determination of MBEC values, the Calgary device lid (with attached pegs/treated biofilms) was transferred to a new 96-well plate containing 150 μL of fresh TSBG media in each well and incubated for 24 hours at 37° C. to allow viable biofilms to grow and disperse resulting in turbidity after the incubation period. […] In select experiments, treated pegs from the Calgary device were removed from lead biofilm eradicators after final incubation, sonicated for 30 minutes in PBS and plated out to determine biofilm cell killing (e.g., colony forming unit per milliliter, CFU/mL).

[2] = system: vancomycin-resistant Enterococcus faecium (VRE, ATCC 700221); experiment: Minimum inhibitory concentration (MIC) susceptibility assay, broth microdilution; type: cell-based
Procedure: (§2) The minimum inhibitory concentration (MIC) for each compound was determined by the broth microdilution method as recommended by the Clinical and Laboratory Standards Institute (CLSI). In a 96-well plate, eleven two-fold serial dilutions of each compound were made in a final volume of 100 μL Luria Broth. Each well was inoculated with ˜10^5 bacterial cells at the initial time of incubation, prepared from a fresh log phase culture (OD600 of 0.5 to 1.0 depending on bacterial strain). […] The concentration range tested for each compound during this study was 0.10 to 100 μM. DMSO served as the vehicle and negative control in each microdilution MIC assay. DMSO was serially diluted with a top concentration of 1% v/v. Bacterial strains used: methicillin-resistant Staphylococcus aureus-2 (MRSA-2; clinical isolate from Shands Hospital in Gainesville, Fla.), methicillin-resistant Staphylococcus epidermidis (MRSE; ATCC 35984), vancomycin-resistant Enterococcus faecium (VRE, ATCC 700221).

[3] = system: methicillin-resistant Staphylococcus epidermidis (MRSE; ATCC 35984); experiment: as above; type: cell-based; conditions: for MIC: Table 2, ATCC 35984, read-out: MRSE MIC
Procedure: as §2

A. baumannii = experiment: MIC, antibacterial profile of broxyquinoline and HQ-1 (FIG. 2A); type: cell-based, Acinetobacter baumannii
MRSA BAA-1707 = experiment: Calgary Biofilm Device (CBD) MBC/MBEC determination; type: cell-based, Staphylococcus aureus; conditions: Table 4, CBD
Procedure: as §1

[4] = system: MRSA-2 planktonic cells and biofilms; experiment: as above; type: cell-based, Staphylococcus aureus; conditions: CBD; for MBC: planktonic killing, first value of MBC/MBEC cell
Procedure: as §1

[5] = system: MRSE (ATCC 35984) planktonic cells and biofilms; experiment: as above; type: cell-based, Staphylococcus epidermidis; conditions: CBD; for MBC: planktonic killing, first value of cell
Procedure: as §1

human red blood cells = experiment: Hemolysis assay; type: cell-based
Procedure: Freshly drawn human red blood cells (hRBC with ethylenediaminetetraacetic acid (EDTA) as an anticoagulant) were washed with Tris-buffered saline (0.01M Tris-base, 0.155M sodium chloride (NaCl), pH 7.2) and centrifuged for 5 minutes at 3500 rpm. The washing was repeated three times with the buffer. In 96-well plate, the test compounds were added to the buffer. […] The plate was then incubated for 1 hour at 37° C. After incubation, the plate is centrifuged for 5 minutes at 3500 rpm. Then 80 μL of the supernatant were transferred to another 96-well plate and the Optical Density (OD) was read at 405 nm. […] The percent of hemolysis was calculated as (OD405 of the compound-OD405 DMSO)/(OD405 Triton X-OD405 buffer).

MRSA-2 = experiment: Mechanistic investigations with metal(II)-cations (MIC assay with 200 μM metal salt); type: cell-based, Staphylococcus aureus; conditions: MRSA-2
Procedure: as §2

S. aureus = experiment: MIC, antibacterial profile of broxyquinoline and HQ-1 (FIG. 2A); type: cell-based; conditions: Staphylococcus aureus
S. epidermidis = experiment: as above; type: cell-based; conditions: Staphylococcus epidermidis
[6] = system: methicillin-resistant Staphylococcus aureus-2 (MRSA-2; clinical isolate); experiment: Minimum inhibitory concentration (MIC) susceptibility assay, broth microdilution; type: cell-based; conditions: Staphylococcus, MRSA
Procedure: as §2

[7] = system: MRSA-2, MRSE 35984, VRE 700221; experiment: MIC assays, range stated over the three drug-resistant pathogens; type: cell-based; conditions: range over MRSA-2, MRSE, read-out: MIC against these drug-resistant pathogens
Procedure: as §2

[8] = Table 2, biofilm eradication, second value of cell

SMILES: Cc1ccc2c(Br)cc(Br)c(O)c2n1 [HQ-1, reference compound]
VRE ATCC 700221 MBEC [1, 8]: 1.5 µM
MBC ([1]; Table 2, read-out: VRE ATCC 700221 MBC): 2.0 µM (≈ 0.634 µg/mL)
VRE MBEC ([1]; Table 3, biofilm eradication, second value of cell, footnote c = lowest concentration tested): 1.5 µM
MBC ([1]; Table 3, footnote c = lowest concentration tested, read-out: VRE MBC): 2.0 µM (≈ 0.634 µg/mL)
VRE MIC ([2]; Table 3): 2.35^a μM
MIC [3]: 0.39 µM (≈ 0.124 µg/mL)
MRSE MIC ([3]; Table 3): 0.30^a μM
MIC (A. baumannii): 32 µg/mL
MIC (A. baumannii; read-out: MIC): 100 µM
MRSA BAA-1707 MBEC (MRSA BAA-1707; biofilm eradication, second value of cell): 46.9 µM
MBC (MRSA BAA-1707; planktonic killing, first value of cell, read-out: MRSA BAA-1707 MBC): 62.5 µM (≈ 19.8 µg/mL)
MRSA-2 Clinical Isolate MBEC ([4]; Table 2, biofilm eradication, second value of MBC/MBEC cell): 188 µM
MBC ([4]; Table 2, read-out: MRSA-2 Clinical Isolate MBC): 23.5 µM (≈ 7.45 µg/mL)
MRSA-2 MBEC ([4]; Table 3, biofilm eradication, second value of MBC/MBEC cell): 188 µM
MBC ([4]; Table 3, read-out: MRSA-2 MBC): 23.5 µM (≈ 7.45 µg/mL)
MRSE ATCC 35984 MBEC [5, 8]: 93.8 µM
MBC ([5]; Table 2, read-out: MRSE ATCC 35984 MBC): 31.3 µM (≈ 9.92 µg/mL)
MRSE MBEC ([5]; Table 3, biofilm eradication, second value of cell): 93.8 µM
MBC ([5]; Table 3, read-out: MRSE MBC): 31.3 µM (≈ 9.92 µg/mL)
% Haemolysis at 200 μM (human red blood cells; Table 2, human red blood cells, 1 hour at 37° C.): ≤1%
% Haemolysis at 200 μM (human red blood cells; Table 3, human red blood cells): ≤1%
MIC w/Fe^2+ (MRSA-2; 200 μM ammonium iron (II) sulfate hexahydrate): >100^b μM and >100^c μM
MIC w/Cu^2+ (MRSA-2; 200 μM copper (II) sulfate): 25^b μM and 25^c μM
MIC (MRSA-2; 200 μM magnesium (II) sulfate, read-out: MIC w/Mg^2+): 1.56 µM
MIC w/Zn^2+ (MRSA-2; 200 μM zinc (II) chloride): 0.15^a,b μM and 0.1^a,c μM

SMILES: Oc1c(Br)cc(Br)c2cccnc12 [Broxyquinoline]
MIC (S. aureus): 12.5 µM and 4 µg/mL
MIC (A. baumannii; Acinetobacter baumannii, read-out: MIC): 12.5 µM and 4 µg/mL
MIC (S. epidermidis): 12.5 µM and 4 µg/mL

MIC ([2]; Table 2, ATCC 700221, read-out: VRE MIC): 75 µM (≈ 43.5 µg/mL)
MIC ([3]; Staphylococcus epidermidis): 9.38 µM (≈ 5.44 µg/mL)
MIC ([6]; Table 2, 2 to 6 independent experiments, read-out: MRSA-2 MIC): 18.8 µM (≈ 10.9 µg/mL)
MIC ([6]; read-out: MIC): > 100 µM
MIC [7]: 9.38 to 75 µM (≈ 5.44 to 43.5 µg/mL)
MIC (MRSA-2; Staphylococcus aureus, 200 μM ammonium iron (II) sulfate hexahydrate, read-out: MIC w/Fe^2+): > 100 µM
MIC (MRSA-2; Staphylococcus aureus, 200 μM copper (II) sulfate, read-out: MIC w/Cu^2+): > 100 µM
MIC (MRSA-2; Staphylococcus aureus, 200 μM magnesium (II) sulfate, read-out: MIC w/Mg^2+): > 100 µM
MIC (MRSA-2; Staphylococcus aureus, 200 μM zinc (II) chloride, read-out: MIC w/Zn^2+): > 100 µM
SMILES: Cc1c(Br)cc(NCc2ccc3c(Br)cc(Br)c(O)c3n2)cc1Br [HQ-7]
MBC ([1]; Enterococcus, Table 2, read-out: VRE ATCC 700221 MBC): 125 µM (≈ 72.5 µg/mL)
MBC ([4]; Staphylococcus aureus, MRSA, Table 2, read-out: MRSA-2 Clinical Isolate MBC): 500 µM (≈ 290 µg/mL)
MBC ([5]; Staphylococcus epidermidis, Table 2, read-out: MRSE ATCC 35984 MBC): 250 µM (≈ 145 µg/mL)
% Haemolysis at 200 μM (human red blood cells; human, 1 h, pH 7.2): ≤1%
